System: MCF-7 cells
Assay: MCF-7 Estrogen Dependent Proliferation Assay
Assay type: cell-based
Conditions: Homo sapiens, MCF7, addition to Estrogen Depleted Media (EDM), read-out: EC50 of growth stimulation of MCF-7 cells
Description: MCF-7 cells (ATCC #HTB-22) are human mammary gland adenocarcinoma cells that require estrogen for growth. The growth media (GM) for the MCF-7 cells is Minimum Essential Media (without phenol red) supplemented with fetal bovine serum (FBS) to 10%. The FBS serves as the sole source of estrogen and this GM supports the full growth of the cells and is used for the routine growth of the cell cultures. When MCF-7 cells are placed in a media in which 10% Charcoal-Dextran treated fetal bovine serum (CD-FBS) is substituted for FBS, the cells will cease to divide but will remain viable. […] The addition of estradiol to EDM stimulates the growth of the MCF-7 cells in a dose dependent manner with an EC50 of 2 pM. Growing MCF-7 cells are washed several times with EDM and the cultures then maintained in EDM for a minimum of 6 days in order to deplete the cells of endogenous estrogen. […] At this point, the culture supernatants are aspirated, the cells washed 2× with PBS, the wash solution aspirated and the protein content of each well determined. Each drug dilution is evaluated on a minimum of 5 wells and the range of dilution of the test compounds in the assay is 0.001 nM to 1000 nM. […] The assay is terminated at day 8–10 when the appropriate controls reach 80–90% confluency and the protein content of each well is determined as above.

- EC50: 2 pM
SMILES: C[C@]12CC[C@@H]3c4ccc(O)cc4CC[C@H]3[C@@H]1CC[C@@H]2O [estradiol]

Source: patent publication US7138426B2, “Estrogen receptor modulators” (Merck & Co., Inc., priority 2003, dated 2006)
